Converted amounts (≈) assume the structure as drawn.
Assays:
[1] = test system: E. coli; assay: MIC by broth microdilution (CLSI), E. coli; format: cell-based; details: broth microdilution, cation adjusted Mueller-Hinton Broth, 35° C., 18-24 h; for MIC: Escherichia coli, read-out: E. coli MIC
Description: (§1) Minimal inhibitory concentrations (MIC) were determined by the broth microdilution method in accordance with the Clinical and Laboratory Standards Institute (CLSI) guidelines. In brief, organism suspensions were adjusted to a 0.5 McFarland standard to yield a final inoculum between 3×10^5 and 7×10^5 colony-forming units (CFU)/mL. Drug dilutions and inocula were made in sterile, cation adjusted Mueller-Hinton Broth (Beckton Dickinson). An inoculum volume of 100 μL was added to wells containing 100 μL of broth with 2-fold serial dilutions of drug. All inoculated microdilution trays were incubated in ambient air at 35° C. for 18-24 h. Following incubation, the lowest concentration of the drug that prevented visible growth (OD600 nm<0.05) was recorded as the MIC. Performance of the assay was monitored by the use of laboratory quality-control strains and levofloxacin, a compound with a defined MIC spectrum, in accordance with CLSI guidelines.

[2] = test system: K. pneumoniae; assay: MIC by broth microdilution (CLSI), K. pneumoniae; format: cell-based; details: broth microdilution, cation adjusted Mueller-Hinton Broth, 35° C., 18-24 h; for MIC: Klebsiella pneumoniae, read-out: K. pneumoniae MIC
Description: as §1

MIC [1] [µg/mL]	SMILES	also measured
8 to 32 (≈ 18.6 to 74.5 µM)	Cn1ccc(=O)c(O)c1CNc1ccc(C#Cc2ccc(CN3CCOCC3)cc2)cc1 [Compound 2, 3-hydroxy-1-methyl-2-(((4-((4-(morpholinomethyl)phenyl)ethynyl)phenyl)amino)methyl) pyridin-4(1H)-one]	
1 to 8 (≈ 2.33 to 18.6 µM)	CC(Cc1ccc(C#Cc2ccc(CN3CCOCC3)cc2)cc1)c1nc[nH]c(=O)c1O (stereo not drawn) [Compound 104, 5-hydroxy-6-(1-(4-((4-(morpholinomethyl)phenyl)ethynyl)phenyl)propan-2-yl)pyrimidin-4(3H)-one]	MIC [2]: 1 to 8 µg/mL (≈ 2.33 to 18.6 µM)
8 to 32 (≈ 21 to 83.9 µM)	CC(C)C#CC#Cc1ccc(CC(CNCCF)c2nc[nH]c(=O)c2O)cc1 (stereo not drawn) [Compound 66, 6-(1-((2-fluoroethyl)amino)-3-(4-(5-methylhexa-1,3-diyn-1-yl)phenyl)propan-2-yl)-5-hydroxypyrimidin-4(3H)-one]	MIC [2]: 8 to 32 µg/mL (≈ 21 to 83.9 µM)
> 32	O=c1[nH]cnc(CNc2ccc(C#Cc3ccc(-c4ncco4)cc3)cc2)c1O [Compound 128, 5-hydroxy-6-(((4-((4-(oxazol-2-yl)phenyl)ethynyl)phenyl)amino)methyl)pyrimidin-4(3H)-one]	
8 to 32 (≈ 18 to 71.8 µM)	O=C1N(Cc2nc[nH]c(=O)c2O)Cc2cc(C#Cc3ccc(CN4CCOCC4)cc3)cn21 [Compound 81, 2-((5-hydroxy-6-oxo-1,6-dihydropyrimidin-4-yl)methyl)-6-((4-(morpholinomethyl)phenyl)ethynyl)-1,2-dihydro-3H-pyrrolo[1,2-c]imidazol-3-one]	
> 32	CS(=O)(=O)NCC(Cc1ccc(C#Cc2ccc(CN3CCOCC3)cc2)cc1)n1cncc(O)c1=O (stereo not drawn) [Compound 7, N-(2-(5-hydroxy-6-oxopyrimidin-1(6H)-yl)-3-(4-((4-(morpholinomethyl)phenyl)ethynyl)phenyl)propyl) methanesulfonamide]	
> 32	Cc1ncc(C#Cc2ccc(CC(C(=O)NCC(F)F)c3nc[nH]c(=O)c3O)cc2)cn1 (stereo not drawn) [Compound 25, N-(2,2-difluoroethyl)-2-(5-hydroxy-6-oxo-1,6-dihydropyrimidin-4-yl)-3-(4-((2-methylpyrimidin-5-yl)ethynyl)phenyl)propanamide]	MIC [2]: > 32 µg/mL
1 to 8 (≈ 2.32 to 18.5 µM)	CC(C)C#CC#Cc1ccc(CC(C(=O)NCC(F)F)c2nc[nH]c(=O)c2O)cc1F (stereo not drawn) [Compound 63, N-(2,2-difluoroethyl)-3-(3-fluoro-4-(5-methylhexa-1,3-diyn-1-yl)phenyl)-2-(5-hydroxy-6-oxo-1,6-dihydropyrimidin-4-yl)propanamide]	MIC [2]: 8 to 32 µg/mL (≈ 18.5 to 74.2 µM)
> 32	OCC(Cc1nccc(O)c1O)c1ccc(C#Cc2ccc(CN3CCOCC3)cc2)cc1 (stereo not drawn) [Compound 134, 2-(3-hydroxy-2-(4-((4-(morpholinomethyl)phenyl)ethynyl)phenyl)propyl)pyridine-3,4-diol]	MIC [2]: > 32 µg/mL
1 to 8 (≈ 2.4 to 19.2 µM)	O=c1ccoc(CNc2ccc(C#Cc3ccc(CN4CCOCC4)cc3)cc2)c1O [Compound 109, 3-hydroxy-2-(((4-((4-(morpholinomethyl)phenyl)ethynyl)phenyl)amino)methyl)-4H-pyran-4-one]	MIC [2]: 8 to 32 µg/mL (≈ 19.2 to 76.8 µM)
	OCC(Cc1nncc(O)c1O)c1ccc(C#Cc2ccc(CN[C@H]3CCOC3)cc2)cc1 (single isomer, unassigned) [Compound 102]	E. coli MIC [1]: C (C: >8.0 μg/mL to ≤32 μg/mL); K. pneumoniae MIC [2]: C (C: >8.0 μg/mL to ≤32 μg/mL)
> 32	N#CC(Cc1ccc(C#Cc2ccc(CN3CCOCC3)cc2)cc1)c1cc[nH]c(=O)c1O (stereo not drawn) [Compound 121, 2-(3-hydroxy-2-oxo-1,2-dihydropyridin-4-yl)-3-(4-((4-(morpholinomethyl)phenyl)ethynyl)phenyl)propanenitrile]	
8 to 32 (≈ 18 to 72 µM)	O=c1cccc(CC(CO)c2ccc(C#Cc3ccc(CN4CCOCC4)cc3)cc2)n1O (stereo not drawn) [Compound 138, 1-hydroxy-6-(3-hydroxy-2-(4-((4-(morpholinomethyl)phenyl)ethynyl)phenyl)propyl)pyridin-2(1H)-one]	MIC [2]: 8 to 32 µg/mL (≈ 18 to 72 µM)
> 32	O=c1[nH]cnc(C(CNCCF)Cc2ccc(C#Cc3ccc(CN4CCOCC4)nc3)cc2)c1O (stereo not drawn) [Compound 31, 6-(1-((2-fluoroethyl)amino)-3-(4-((6-(morpholinomethyl)pyridin-3-yl)ethynyl)phenyl)propan-2-yl)-5-hydroxypyrimidin-4(3H)-one]	MIC [2]: > 32 µg/mL
1 to 8 (≈ 2.4 to 19.2 µM)	O=c1[nH]cnc(CCc2ncc(C#Cc3ccc(CN4CCOCC4)cc3)cn2)c1O [Compound 21, 5-hydroxy-6-(2-(5-((4-(morpholinomethyl)phenyl)ethynyl)pyrimidin-2-yl)ethyl)pyrimidin-4(3H)-one]	
8 to 32 (≈ 18.3 to 73.3 µM)	O=C(Cc1nc[nH]c(=O)c1O)N1CCC(C#Cc2ccc(CN3CCOCC3)cc2)CC1 [Compound 77, 5-hydroxy-6-(2-(4-((4-(morpholinomethyl)phenyl)ethynyl)piperidin-1-yl)-2-oxoethyl)pyrimidin-4(3H)-one]	MIC [2]: > 32 µg/mL

MIC [1] [µg/mL]	SMILES	also measured
> 32	O=c1ccoc(CS(=O)(=O)c2ccc(C#Cc3ccc(CN4CCOCC4)cc3)cc2)c1O [Compound 124, 3-hydroxy-2-(((4-((4-(morpholinomethyl)phenyl)ethynyl)phenyl)sulfonyl)methyl)-4H-pyran-4-one]	
> 32	NC(=O)C(Cc1ccc(C#Cc2ccc(CN3CCOCC3)cc2)cc1)n1cncc(O)c1=O (stereo not drawn) [Compound 5, 2-(5-hydroxy-6-oxopyrimidin-1(6H)-yl)-3-(4-((4-(morpholinomethyl)phenyl)ethynyl)phenyl)propanamide]	
> 32	CC(=O)NCC(Cc1ccc(C#Cc2ccc(CN3CCOCC3)cc2)cc1)n1cncc(O)c1=O (stereo not drawn) [Compound 3, N-(2-(5-hydroxy-6-oxopyrimidin-1(6H)-yl)-3-(4-((4-(morpholinomethyl)phenyl)ethynyl)phenyl)propyl) acetamide]	
> 32	C=CCC(Nc1ccc(C#Cc2ccc(CN3CCOCC3)cc2)cc1)c1occc(=O)c1O (stereo not drawn) [Compound 126, 3-hydroxy-2-(1-((4-((4-(morpholinomethyl)phenyl)ethynyl)phenyl)amino)but-3-en-1-yl)-4H-pyran-4-one]	
> 32	O=c1[nH]cnc(CNc2ccc(C#Cc3ccc(-c4nnn[nH]4)cc3)cc2)c1O [Compound 129, 6-(((4-((4-(1H-tetrazol-5-yl)phenyl)ethynyl)phenyl)amino)methyl)-5-hydroxypyrimidin-4(3H)-one]	
> 32	O=C(O)c1ccc(C#Cc2ccc(NCc3occc(=O)c3O)cc2)cc1 [Compound 123, 4-((4-(((3-hydroxy-4-oxo-4H-pyran-2-yl)methyl)amino)phenyl)ethynyl)benzoic acid]	
> 32	NC(=O)C(Cc1ccc(C#Cc2ccc(CN3CCOCC3)cc2)cc1)n1cccc(O)c1=O (stereo not drawn) [Compound 6, 2-(3-hydroxy-2-oxopyridin-1(2H)-yl)-3-(4-((4-(morpholinomethyl)phenyl)ethynyl)phenyl)propanamide]	
> 32	O=C(Nc1ccc(C#CC#Cc2ccccc2)cc1)c1occc(=O)c1O [Compound 130, 3-hydroxy-4-oxo-N-(4-(phenylbuta-1,3-diyn-1-yl)phenyl)-4H-pyran-2-carboxamide]	
> 32	CC(=O)NCC(Cc1ccc(C#Cc2ccc(CN3CCOCC3)cc2)cc1)c1cc[nH]c(=O)c1O (stereo not drawn) [Compound 1, N-(2-(3-hydroxy-2-oxo-1,2-dihydropyridin-4-yl)-3-(4-((4-(morpholinomethyl)phenyl)ethynyl)phenyl)propyl) acetamide]	
> 32	O=c1[nH]cnc(C(Cc2ccc(C#Cc3ccc(CN4CCOCC4)cc3)cc2)Cn2cnnn2)c1O (stereo not drawn) [Compound 119, 5-hydroxy-6-(1-(4-((4-(morpholinomethyl)phenyl)ethynyl)phenyl)-3-(1H-tetrazol-1-yl)propan-2-yl)pyrimidin-4(3H)-one]	
> 32	CS(=O)(=O)C(Cc1ccc(C#Cc2ccc(CN3CCOCC3)cc2)cc1)c1occc(=O)c1O (stereo not drawn) [Compound 120, 3-hydroxy-2-(l1-(methylsulfonyl)-2-(4-((4-(morpholinomethyl)phenyl)ethynyl)phenyl)ethyl)-4H-pyran-4-one]	
8 to 32 (≈ 17.2 to 68.7 µM)	O=c1[nH]cnc(CS(=O)(=O)c2ccc(C#Cc3ccc(CN4CCOCC4)cc3)cc2)c1O [Compound 118, 5-hydroxy-6-(((4-((4-(morpholinomethyl)phenyl)ethynyl)phenyl)sulfonyl)methyl) pyrimidin-4(3H)-one]	
8 to 32 (≈ 19.1 to 76.5 µM)	O=c1[nH]cnc(Cn2ccc(C#Cc3ccc(CN4CCOCC4)cc3)cc2=O)c1O [Compound 44, 5-hydroxy-6-((4-((4-(morpholinomethyl)phenyl)ethynyl)-2-oxopyridin-1(2H)-yl)methyl)pyrimidin-4(3H)-one]	
8 to 32 (≈ 17 to 67.9 µM)	CNC(=O)C(Cc1ccc(C#Cc2ccc(CN3CCOCC3)cc2)cc1)c1nccc(O)c1O (stereo not drawn) [Compound 12, 2-(3,4-dihydroxypyridin-2-yl)-N-methyl-3-(4-((4-(morpholinomethyl)phenyl)ethynyl)phenyl)propanamide]	
> 32	CNC(=O)C(Cc1ccc(C#Cc2ccc(CN3CCOCC3)cc2)cc1)n1cncc(O)c1=O (stereo not drawn) [Compound 4, 2-(5-hydroxy-6-oxopyrimidin-1(6H)-yl)-N-methyl-3-(4-((4-(morpholinomethyl)phenyl)ethynyl)phenyl)propanamide]	
> 32	O=c1[nH]cnc(CN(CCO)c2ccc(C#Cc3ccc(CN4CCOCC4)cc3)cc2)c1O [Compound 127, 5-hydroxy-6-(((2-hydroxyethyl)(4-((4-(morpholinomethyl)phenyl)ethynyl)phenyl)amino)methyl) pyrimidin-4(3H)-one]	

Reference: US20220081421A1, “ANTIBACTERIAL COMPOUNDS” (Forge Therapeutics, Inc., priority 2018, published 2022)
